Measured values from patent publication US8183415B2, “Methods of synthesizing cinacalcet and salts thereof” (Amgen, Inc., priority 2007, dated 2012).
Structures can show the parent of a compound that is named as a salt.

How the values were obtained:
calcium-sensing receptor [1] = target: T1, calcium-sensing receptor (Homo sapiens, UniProt P41180); details: patients with chronic kidney disease on dialysis with secondary hyperparathyroidism; cited from earlier work
T1 construct: a calcium-sensing receptor on the cell surface of the parathyroid gland; from tissue; host or cells: parathyroid gland of patients (in vivo, clinical use)
T1 sequence (P41180 20-1078): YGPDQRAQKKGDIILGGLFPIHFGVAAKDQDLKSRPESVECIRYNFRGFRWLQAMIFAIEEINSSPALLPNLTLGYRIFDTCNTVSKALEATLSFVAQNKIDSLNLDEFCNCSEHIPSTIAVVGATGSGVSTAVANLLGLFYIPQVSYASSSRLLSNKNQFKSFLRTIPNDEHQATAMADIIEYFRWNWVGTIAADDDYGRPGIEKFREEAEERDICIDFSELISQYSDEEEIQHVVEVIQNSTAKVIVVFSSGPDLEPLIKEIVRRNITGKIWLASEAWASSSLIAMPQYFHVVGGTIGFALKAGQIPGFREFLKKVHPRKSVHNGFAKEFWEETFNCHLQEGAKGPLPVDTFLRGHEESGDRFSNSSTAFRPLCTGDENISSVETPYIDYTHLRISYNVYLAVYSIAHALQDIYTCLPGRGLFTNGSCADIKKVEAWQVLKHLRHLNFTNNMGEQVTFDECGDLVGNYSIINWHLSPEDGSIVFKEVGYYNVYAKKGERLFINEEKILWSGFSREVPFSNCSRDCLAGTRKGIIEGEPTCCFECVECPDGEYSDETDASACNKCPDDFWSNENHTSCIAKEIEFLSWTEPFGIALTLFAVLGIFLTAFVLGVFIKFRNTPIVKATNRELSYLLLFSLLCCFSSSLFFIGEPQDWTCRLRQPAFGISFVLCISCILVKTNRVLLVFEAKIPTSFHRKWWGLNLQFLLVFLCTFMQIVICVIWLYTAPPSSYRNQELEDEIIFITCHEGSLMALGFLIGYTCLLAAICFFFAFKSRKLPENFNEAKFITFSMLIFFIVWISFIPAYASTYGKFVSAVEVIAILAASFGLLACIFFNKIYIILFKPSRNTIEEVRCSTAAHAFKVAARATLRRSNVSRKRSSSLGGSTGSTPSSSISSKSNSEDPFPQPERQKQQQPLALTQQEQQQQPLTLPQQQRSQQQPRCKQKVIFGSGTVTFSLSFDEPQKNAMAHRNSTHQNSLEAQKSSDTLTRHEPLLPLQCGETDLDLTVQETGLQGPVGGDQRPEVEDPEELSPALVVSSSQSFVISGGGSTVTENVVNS

calcium-sensing receptor [2] = target: T1, calcium-sensing receptor; details: patients with parathyroid carcinoma; cited from earlier work

## C[C@@H](NCCCc1cccc(C(F)(F)F)c1)c1cccc2ccccc12 [Sensipar, N-[1-(R)-(−)-(1-naphthyl)ethyl]-3-[3-(trifluoromethyl)phenyl]-1-aminopropane hydrochloride]
calcium-sensing receptor [1]
  therapeutic efficacy: therapeutically effective
calcium-sensing receptor [2]
  effect on calcium levels: reduce high levels of calcium

## C[C@@H](NCCCc1cccc(C(F)(F)F)c1)c1cccc2ccccc12.Cl [Form III]
Variety of solvent systems and crystallization methods, XRPD
  thermodynamic stability of crystalline form: metastable form

## C[C@@H](NCCCc1cccc(C(F)(F)F)c1)c1cccc2ccccc12.Cl [Form II]
At room temperature
  stability of crystalline form: unstable
